Patent US8097585B2, “Methods of treating inflammation by administration of heme oxygenase-1 and products of heme degradation” (priority 2002, dated 2012)
Structures can show the parent of a compound that is named as a salt.

How the values were obtained:
[1] = system: HO-1; assay: HO-1 expression in donor tissues and islets after CoPP; assay type: in vivo, mice; settings: CoPP given to the donor animal; heart, kidney, pancreas, liver and spleen
Description: Induction of HO-1/Administration of biliverdin/bilirubin. When given to the donor, CoPPIX (20 mg/kg) was given 24 hours before islet isolation to induce HO-1 expression. To verify HO-1 expression in different organs after CoPP treatment, tissue samples are collected 24 hours after treatment and snap frozen in liquid nitrogen. Immunohistological analysis of HO-1 expression is performed using an anti-HO-1 antibody. CoPPIX (20 mg/kg) was administrated to the recipient intraperitoneally (i.p.) on day-1, 1, 3, 5 and 7. Biliverdin (50 μmol/kg) or bilirubin (8.5 μmol/kg) was given intraperitoneally to the donor one hour before islet isolation. For the recipient, biliverdin (50 μmol/kg) or bilirubin ([…]) was administered intraperitoneally either daily or twice per day from day-1 until day 13. No further treatment was given afterwards.
Semi-Quantitative PCR. RNA was extracted using Rneasy™ Mini Kits (Qiagen Inc., CA, USA) and reverse transcribed into cDNA with the RNA PCR Kit (TaKaRa, PanVera, Madison, Wis., USA). A total of 2 μg of cDNA was amplified in a 50 μl reaction mix containing 10 μM dNTPs, […] of 5′-prime and 3′-prime oligos, 2.5 U of LA-Taq polymerase (TaKaRa) and MgCl2, specific to each primer pair used. […] PCR products (10-20 μl) were analyzed in an ethidium bromide-stained 1% agarose gel.

[2] = set-up: species or system LEW rats; settings: rat, in vivo, ip
Description: Serum bilirubin levels and BVR expression in the graft. To assess how fast injected biliverdin (BV) is metabolized into bilirubin, sequential serum bilirubin levels were analyzed. Before BV treatment, serum bilirubin levels were undetectable. Thirty minutes after BV injection i.p., serum bilirubin levels reached a peak of 1.07±0.5 mg/dl compared to those of normal animals. By 2 hours after injection i.p., bilirubin levels returned to normal.

[3] = system: IL-10; assay: Real time RT-PCR of graft muscularis after SITx, IL-10; assay type: in vivo, LEW rats; settings: BV treatment, 4 hours
Description: (§1) Small Intestinal Transplantation. Orthotopic small intestinal transplantation (SITx) was performed in syngeneic Lewis rats. SITx with caval drainage was performed using a previously described procedure (Murase et al., in Handbook of Animal Models in Transplantation Research, Cramer et al., Eds. CRC Press, Boca Raton, Fla., pp. 203-213 (1994)). […] The graft was perfused via the aortic segment with 5 ml chilled Ringer's lactate solution, and the intestinal lumen was irrigated with 20 ml of cold saline solution containing 0.5% neomycin-sulfate (Sigma, St. Louis, Mo.). […]
(§2) SYBR green real time RT-PCR. The effects of administration of biliverdin on transplant-induced pro-inflammatory and anti-inflammatory gene expression were assessed in muscularis extracts by RT-PCR Biliverdin ([…], i.p.) was administered to both the donor and recipient three hours preoperatively. […] Equal aliquots (5 μg) of total RNA from each sample were quantified by spectrophotometry (wavelength […]) and aliquoted at a concentration of 40 ng/μl. Peak mRNA expression was quantified in duplicate by SYBR Green two-step, real-time RT-PCR. […] Real-time PCR data were plotted as the ΔRn fluorescence signal versus the cycle number. […] Quantification of mRNA expression was normalized to GAPDH and calculated relative to control using the comparative CT method (Schmittgen et al., J. Biochem. Biophys. Methods 46(1-2):69-8, 2000). […]

[4] = system: ICAM-1; assay: Real time RT-PCR of graft muscularis after SITx, ICAM-1; assay type: in vivo, LEW rats; settings: BV treatment
Description: as §1, §2

Row | Structure (SMILES) | HO-1 expression in donor tissues [1] | peak serum bilirubin level ([2]; LEW) | time for bilirubin levels to return to normal ([2]; LEW) | time to peak serum bilirubin [2] | upregulation of IL-10 mRNA caused by transplantation [3] | reduction of ICAM-1 expression in the graft [4]
1 | C=CC1=C(C)c2cc3[n-]c(cc4nc(cc5[n-]c(cc1n2)c(C)c5CCC(=O)[O-])C(CCC(=O)[O-])=C4C)c(C)c3C=C.[Co+2].[H+].[H+] [CoPP, Cobalt protoporphyrin] | HO-1 expression was observed in several different tissues | – | – | – | – | –
2 | C=CC1=C(C)/C(=C/C2=NC(=C\c3[nH]c(/C=C4\NC(=O)C(C)=C4C=C)c(C)c3CCC(=O)O)/C(CCC(=O)O)=C2C)NC1=O [biliverdin, biliverdin dihydrochloride] | – | 1.07 ± 0.5 mg/dL | ≤ 2 h | Thirty | did not significantly change | up to 30%
